US20070003671A1, “Two-part calcium fortified compositions and methods of making the same” (priority 2005, published 2007)

Key:
[1] = Calcium salts, physical/chemical attributes in orange juice, 350 mg/100 mL calcium load; type: physicochemical; details: for Brix/Acid Ratio: unfortified juice 18.3
Description: (§1) The flavor of orange juice, for example, can be characterized by a unique balance of sweetness resulting from the sugar content and tartness resulting from the acid content. A challenge of fortifying orange juice with nutritionally significant amounts of calcium is maintaining the sweet to tart balance. This balance can be expressed analytically as the Brix to acid ratio, as described above. The Brix component of the ratio is the measure of soluble solids in the composition often determined by a refractometer. The acid component can be determined by titration with a base such as sodium hydroxide. The Brix to acid ratio is an analytical representation or measure of the sweet to tart taste balance.
A variety of calcium salts, i.e., calcium components, were again evaluated to determine their effects on the Brix-acid ratio but this time at 350 mg/100 mL calcium load.

[2] = Calcium salts, physical/chemical attributes in orange juice, 450 mg/100 mL calcium load; type: physicochemical; details: for Brix/Acid Ratio: unfortified juice 18.3
Description: as §1
A variety of calcium salts, i.e., calcium components, were evaluated to determine their effects on the Brix-acid ratio. In this evaluation, orange juices fortified with different calcium salts were prepared at 450 mg/100 mL of calcium load.

N[C@@H](CCC(=O)[O-])C(=O)[O-].O.O.O.O.[Ca+2] [calcium L-glutamate tetrahydrate]
Brix (48 hrs) [1]: 13.41 | Calcium in Juice (48 hrs) [1]: 161 mg/100 mL | Titratable Acidity (%) (48 hrs) [1]: 0.621% | pH (48 hrs) [1]: 4.42 | Brix/Acid Ratio [1]: 21.6 | Brix (48 Hours) [2]: 13.81 | Calcium - Juice (48 Hours) [2]: 207 mg/100 mL | Titratable Acidity (%) (48 Hours) [2]: 0.627% | pH (48 Hours) [2]: 4.47 | Brix/Acid Ratio [2]: 22.0

O.O.O=C([O-])[C@H](O)[C@@H](O)C(=O)[O-].[Ca+2] [calcium L-tartrate dihydrate]
Brix (48 hrs) [1]: 11.99 | Calcium in Juice (48 hrs) [1]: 113 mg/100 mL | Titratable Acidity (%) (48 hrs) [1]: 0.574% | pH (48 hrs) [1]: 4.17 | Brix/Acid Ratio [1]: 20.9 | Brix (48 Hours) [2]: 12.02 | Calcium - Juice (48 Hours) [2]: 140 mg/100 mL | Titratable Acidity (%) (48 Hours) [2]: 0.545% | pH (48 Hours) [2]: 4.23 | Brix/Acid Ratio [2]: 22.1

O=C([O-])[O-].[Ca+2] [calcium carbonate]
Brix (48 hrs) [1]: 12.35 | Calcium in Juice (48 hrs) [1]: 158 mg/100 mL | Titratable Acidity (%) (48 hrs) [1]: 0.188% | pH (48 hrs) [1]: 5.15 | Brix/Acid Ratio [1]: 65.7 | Brix (48 Hours) [2]: 12.44 | Calcium - Juice (48 Hours) [2]: 200 mg/100 mL | Titratable Acidity (%) (48 Hours) [2]: 0.099% | pH (48 Hours) [2]: 5.88 | Brix/Acid Ratio [2]: 125.7

O.O.[Ca+2].[Cl-].[Cl-] [calcium chloride dihydrate]
Brix (48 hrs) [1]: 12.54 | Calcium in Juice (48 hrs) [1]: 163 mg/100 mL | Titratable Acidity (%) (48 hrs) [1]: 0.618% | pH (48 hrs) [1]: 3.88 | Brix/Acid Ratio [1]: 20.3 | Brix (48 Hours) [2]: 12.70 | Calcium - Juice (48 Hours) [2]: 206 mg/100 mL | Titratable Acidity (%) (48 Hours) [2]: 0.620% | pH (48 Hours) [2]: 3.84 | Brix/Acid Ratio [2]: 20.5

O=C[O-].O=C[O-].[Ca+2] [calcium formate]
Brix (48 hrs) [1]: 12.45 | Calcium in Juice (48 hrs) [1]: 160 mg/100 mL | Titratable Acidity (%) (48 hrs) [1]: 0.620% | pH (48 hrs) [1]: 4.18 | Brix/Acid Ratio [1]: 20.1 | Brix (48 Hours) [2]: 12.59 | Calcium - Juice (48 Hours) [2]: 206 mg/100 mL | Titratable Acidity (%) (48 Hours) [2]: 0.620% | pH (48 Hours) [2]: 4.20 | Brix/Acid Ratio [2]: 20.3

O.O.O.O=C([O-])/C=C/C(=O)[O-].[Ca+2] [calcium fumarate trihydrate]
Brix (48 hrs) [1]: 13.56 | Calcium in Juice (48 hrs) [1]: 158 mg/100 mL | Titratable Acidity (%) (48 hrs) [1]: 0.643% | pH (48 hrs) [1]: 3.99 | Brix/Acid Ratio [1]: 21.1 | Brix (48 Hours) [2]: 12.96 | Calcium - Juice (48 Hours) [2]: 202 mg/100 mL | Titratable Acidity (%) (48 Hours) [2]: 0.659% | pH (48 Hours) [2]: 4.01 | Brix/Acid Ratio [2]: 19.7

O.O=P([O-])([O-])OCC(O)CO.[Ca+2] (stereo not shown) [calcium glycerophosphate monohydrate]
Brix (48 hrs) [1]: 12.54 | Calcium in Juice (48 hrs) [1]: 145 mg/100 mL | Titratable Acidity (%) (48 hrs) [1]: 0.602% | pH (48 hrs) [1]: 4.42 | Brix/Acid Ratio [1]: 20.8 | Brix (48 Hours) [2]: 12.73 | Calcium - Juice (48 Hours) [2]: 187 mg/100 mL | Titratable Acidity (%) (48 Hours) [2]: 0.598% | pH (48 Hours) [2]: 4.50 | Brix/Acid Ratio [2]: 21.3

CC(O)C(=O)[O-].CC(O)C(=O)[O-].O.O.O.O.O.[Ca+2] (stereo not shown) [calcium lactate pentahydrate]
Brix (48 hrs) [1]: 12.80 | Calcium in Juice (48 hrs) [1]: 157 mg/100 mL | Titratable Acidity (%) (48 hrs) [1]: 0.670% | pH (48 hrs) [1]: 4.01 | Brix/Acid Ratio [1]: 19.1 | Brix (48 Hours) [2]: 13.01 | Calcium - Juice (48 Hours) [2]: 204 mg/100 mL | Titratable Acidity (%) (48 Hours) [2]: 0.657% | pH (48 Hours) [2]: 4.03 | Brix/Acid Ratio [2]: 19.8

O=C([O-])CC(O)C(=O)[O-].[Ca+2] (stereo not shown) [calcium malate]
Brix (48 hrs) [1]: 12.54 | Calcium in Juice (48 hrs) [1]: 166 mg/100 mL | Titratable Acidity (%) (48 hrs) [1]: 0.635% | pH (48 hrs) [1]: 4.15 | Brix/Acid Ratio [1]: 19.7 | Brix (48 Hours) [2]: 12.80 | Calcium - Juice (48 Hours) [2]: 213 mg/100 mL | Titratable Acidity (%) (48 Hours) [2]: 0.641% | pH (48 Hours) [2]: 4.17 | Brix/Acid Ratio [2]: 20.0

O.O=C([O-])CCC(=O)[O-].[Ca+2] [calcium succinate monohydrate]
Brix (48 hrs) [1]: 12.64 | Calcium in Juice (48 hrs) [1]: 161 mg/100 mL | Titratable Acidity (%) (48 hrs) [1]: 0.606% | pH (48 hrs) [1]: 4.56 | Brix/Acid Ratio [1]: 20.9 | Brix (48 Hours) [2]: 12.85 | Calcium - Juice (48 Hours) [2]: 206 mg/100 mL | Titratable Acidity (%) (48 Hours) [2]: 0.607% | pH (48 Hours) [2]: 4.66 | Brix/Acid Ratio [2]: 21.2

O.O=P([O-])(O)O.O=P([O-])(O)O.[Ca+2] [monocalcium phosphate monohydrate]
Brix (48 hrs) [1]: 12.53 | Calcium in Juice (48 hrs) [1]: 164 mg/100 mL | Titratable Acidity (%) (48 hrs) [1]: 1.083% | pH (48 hrs) [1]: 3.76 | Brix/Acid Ratio [1]: 11.6 | Brix (48 Hours) [2]: 12.92 | Calcium - Juice (48 Hours) [2]: 207 mg/100 mL | Titratable Acidity (%) (48 Hours) [2]: 1.238% | pH (48 Hours) [2]: 3.69 | Brix/Acid Ratio [2]: 10.4

O=C([O-])CC(O)(CC(=O)[O-])C(=O)[O-].O=C([O-])CC(O)(CC(=O)[O-])C(=O)[O-].[Ca+2].[Ca+2].[Ca+2] [tri-calcium citrate]
Brix (48 hrs) [1]: 12.37 | Calcium in Juice (48 hrs) [1]: 140 mg/100 mL | Titratable Acidity (%) (48 hrs) [1]: 0.640% | pH (48 hrs) [1]: 4.06 | Brix/Acid Ratio [1]: 19.3 | Brix (48 Hours) [2]: 12.08 | Calcium - Juice (48 Hours) [2]: 177 mg/100 mL | Titratable Acidity (%) (48 Hours) [2]: 0.630% | pH (48 Hours) [2]: 4.07 | Brix/Acid Ratio [2]: 19.2

O=P([O-])([O-])[O-].O=P([O-])([O-])[O-].[Ca+2].[Ca+2].[Ca+2] [tricalcium phosphate (fine), tricalcium phosphate]
Brix (48 hrs) [1]: 12.27 | Calcium in Juice (48 hrs) [1]: 157 mg/100 mL | Titratable Acidity (%) (48 hrs) [1]: 0.490% | pH (48 hrs) [1]: 4.49 | Brix/Acid Ratio [1]: 25.0 | Brix (48 Hours) [2]: 12.30 | Calcium - Juice (48 Hours) [2]: 197 mg/100 mL | Titratable Acidity (%) (48 Hours) [2]: 0.484% | pH (48 Hours) [2]: 4.51 | Brix/Acid Ratio [2]: 25.4

O=P([O-])([O-])[O-].O=P([O-])([O-])[O-].[Ca+2].[Ca+2].[Ca+2] [tricalcium phosphate]
Brix (48 hrs) [1]: 12.39 | Calcium in Juice (48 hrs) [1]: 147 mg/100 mL | Titratable Acidity (%) (48 hrs) [1]: 0.530% | pH (48 hrs) [1]: 4.34 | Brix/Acid Ratio [1]: 23.4 | Brix (48 Hours) [2]: 12.40 | Calcium - Juice (48 Hours) [2]: 182 mg/100 mL | Titratable Acidity (%) (48 Hours) [2]: 0.561% | pH (48 Hours) [2]: 4.37 | Brix/Acid Ratio [2]: 22.1

calcium ascorbate dihydrate
Brix (48 hrs) [1]: 13.41 | Calcium in Juice (48 hrs) [1]: 160 mg/100 mL | Titratable Acidity (%) (48 hrs) [1]: 0.618% | pH (48 hrs) [1]: 4.16 | Brix/Acid Ratio [1]: 21.7 | Brix (48 Hours) [2]: 13.99 | Calcium - Juice (48 Hours) [2]: 195 mg/100 mL | Titratable Acidity (%) (48 Hours) [2]: 0.648% | pH (48 Hours) [2]: 4.23 | Brix/Acid Ratio [2]: 21.6

calcium aspartate
Brix (48 hrs) [1]: 13.11 | Calcium in Juice (48 hrs) [1]: 159 mg/100 mL | Titratable Acidity (%) (48 hrs) [1]: 0.617% | pH (48 hrs) [1]: 4.24 | Brix/Acid Ratio [1]: 21.2 | Brix (48 Hours) [2]: 13.42 | Calcium - Juice (48 Hours) [2]: 187 mg/100 mL | Titratable Acidity (%) (48 Hours) [2]: 0.610% | pH (48 Hours) [2]: 4.28 | Brix/Acid Ratio [2]: 22.0
